Results taken from US20070225255A1, “Use of Mitochondrially Targeted Antioxidant in the Treatment of Liver Diseases and Epithelial Cancers” (priority 2004, published 2007).

How the values were obtained:
HUH-7 cells = assay: ROS production induced by Antimycin A, lucigenin chemiluminescence assay; type: cell-based, human; details: Antimycin A 0, 1 and 5 μM, MitoQ 0 to 1000 nmol, 3 hours at 37° C.
Description: HUH-7 cells are incubated in 6 well plates and stimulated with Antimycin A in concentration 0-25 μM (0, 1 and 5 μM) simultaneously with or without MitoQ in concentration range from 0 to 1000 nmol dissolved in DMEM (Gibco) for 3 hours at 37° C. The light reaction between superoxide and lucigenin is detected. X axis represents a concentration range of MitoQ [nM] whereas y axis the chemiluminescence signal expressed as average counts per minute [cpm] after normalization to cell number determined by cell counter.
Another approach allows measurement of the ROS production induced by antimycin A or rotenone by using lucigenin chemiluminescence assay (experimental set up as in Example 9) in e.g. HUH-7 or Tib-73. HUH-7 cells are incubated in 6 well plates and stimulated by using antimycin A in concentration 0-25 μM (preferably 0, 1 and 5 μM) simultaneously with or without MitoQ (or MitoS) in concentration range from 0 to 1000 nmol dissolved in DMEM (Gibco) for 3 hours at 37° C. […] The light reaction between superoxide and lucigenin is detected using a chemiluminescence reader (Lumistar, BMG laboratories, Germany). The chemiluminescence signal is expressed as average counts per minute and normalized to cell number as determined by cell counter (Casy Technology Instrument, Schärfe-System, Germany).

[1] = tested on: human epithelial cell cancer xenografts; assay: Nude mice tumor xenografts; type: in vivo, mouse
Description: Tumor cell lines or primary tumors that are xenografted subcutaneously according to standard methods (Li K. et al., 2003, Cancer Res., 63(13): 3593-3597) include colon adenocarcinomas, invasive ductal carcinomas of the breast, small and non-small cell lung carcinoma, prostate tumors, pancreatic tumors and stomach tumors.
Tumor-derived cell lines (grown in DMEM/10% FBS) are harvested in log-phase growth, washed twice with PBS, resuspended in 1 ml PBS (2.5×10^7 cells/ml), and injected subcutaneously into the right flank of a nude mouse (Hsd: athymic nu/nu, Harlan Winkelmann; aged between 5 and 6 weeks) at 5×10^6 cells/mouse (0.2 ml). Tumor growth is monitored every other day for the indicated periods (depending on the cell type). Tumor size is determined by the product of two perpendicular diameters and the height above the skin surface.

[2] = fed in drinking water for 3 to 7 days, 500 μM or 1 mM (MitoVit E 500 μM); cited from earlier work

In the case of MitoQ, the “ROS formation (lucigenin chemiluminescence)” value (HUH-7 cells) is reported as “significant reduction in ROS formation”, the growth of tumors [1] is reported as “reduced growth of tumors” and the “necrosis of the tumors” value [1] is reported as “increased necrosis of the tumors”. For the same substance, the “vascularization of the tumor xenografts” value [1] was “decreased vascularization” and the “gross signs of toxicity” value [2] was “without any gross signs of toxicity”.
